Test results: patent US20260176393A1, “PRESERVATIVE COMPOSITION FOR BIOLOGICAL SAMPLES” (KANAZAWA UNIVERSITY, priority 2022, published 2026)

How the values were obtained:
[1] = Osmotic pressure, vapor pressure-type osmometer; format: physicochemical; settings: 10 wt % in Water
Procedure: A vapor pressure-type osmometer (VAPRO 5600; Wescor, Inc., Logan, UT, USA) was used, and an osmotic pressure was measured in a 10 mL standard chamber (room temperature: 25° C., apparatus sensor temperature: 33° C., sample volume: 10 μL).

[2] = tested on: Human kidney cells (BOSC); test: Cryopreservation test, survival rate of BOSC cells; format: cell-based; settings: 10 wt % in Water; after cryopreservation
Procedure: In the case of adherent cells, the cells to be frozen were treated with trypsin and recovered by centrifugation. In the case of floating cells, the cells to be frozen were recovered by centrifugation. The cells of each type were diluted with Dulbecco's modified Eagle medium (DMEM), and the cell concentration was measured. In the present specification, the DMEM solution is also simply referred to as a medium.
Subsequently, each dilution was dispensed at 1 mL/tube to 1.5 mL tubes, and the cells were suspended in a cryopreservative solution containing 100 μL of a zwitterion polymer solution and frozen at a cooling temperature of −85° C. and a cooling rate of −1° C./min by a cell freezing container Mr. Frosty®. In the present Examples, the commercially available cryopreservative solution used was CultureSure® (manufactured by FUJIFILM Wako Pure Chemical Corp.) unless otherwise specified. The cryopreservation time was set to 48 hours. Then, the cells were thawed at a tube temperature of 37° C. and used in live cell counting.
The cells were thawed by the addition of 1 mL of a medium to the cryopreservation vial at 37° C. and centrifuged to remove a supernatant. The cells thus obtained by centrifugation were resuspended in a medium, followed by live cell counting.

[3] = tested on: mouse fibroblasts (mNF); test: Cryopreservation test, survival rate of mNF cells; format: cell-based; settings: 10 wt % in Water; after cryopreservation
Procedure: In the case of adherent cells, the cells to be frozen were treated with trypsin and recovered by centrifugation. In the case of floating cells, the cells to be frozen were recovered by centrifugation. The cells of each type were diluted with Dulbecco's modified Eagle medium (DMEM), and the cell concentration was measured. In the present specification, the DMEM solution is also simply referred to as a medium. […] Frosty®. In the present Examples, the commercially available cryopreservative solution used was CultureSure® (manufactured by FUJIFILM Wako Pure Chemical Corp.) unless otherwise specified. The cryopreservation time was set to 48 hours. Then, the cells were thawed at a tube temperature of 37° C. and used in live cell counting. The cells were thawed by the addition of 1 mL of a medium to the cryopreservation vial at 37° C. and centrifuged to remove a supernatant. The cells thus obtained by centrifugation were resuspended in a medium, followed by live cell counting.

C=Cn1cc[n+](CCCC(=O)[O-])c1 [VimC3C]
Osmotic pressure [1]: 860 mOsm/kg
Survival rate (BOSC) [2]: 0.15
Survival rate (mNF) [3]: 0.42
